This note sets out measurements from PMC7179112, “Antimicrobial, Antioxidant, and Anticancer Activities of Some Novel Isoxazole Ring Containing Chalcone and Dihydropyrazole Derivatives” (Molecules, 2020).

In brackets after ≈: the same amount, converted by molar mass.

Experiment [1] concerns bacterial and fungal strains (S. aureus, P. aeruginosa, A. niger, C. tropicalis). The experiment can be described thus: Antibacterial and antifungal activity (all strains). Conditions: range over bacterial and fungal strains. Type of experiment: cell-based. Here is the method: (§1) The target chalcones (17–31) and pyrazolines (32–46) were tested for their antimicrobial activities by serial tube dilution method against two types of bacterial and fungal strains (Table 1 and Table 2). The bacterial strains used for the testing, including Gram-positive Staphylococcus aureus and Gram-negative Pseudomonas aeruginosa, whereas the fungal strains employed were Aspergillus niger and Candida tropicalis.
(§2) The antibacterial and antifungal activity of the novel chalcones (17 to 31) and dihydropyrazoles (32 to 46) against the selected bacterial and fungal strains was assessed by following the procedure described in our previous paper.

A further experiment has as its system Human Normal Cells (L02). Nature of the experiment: MTT assay toxicity on normal cells. It is filed as cell-based. (In general: Tetrazolium assays rely on reduction of a dye to a coloured formazan, in cell work by metabolically active cells.)
Experiment [2] concerns prostate cancer cell line, DU-145. Nature of the experiment: MTT assay anticancer activity. Type of experiment: cell-based. Conditions: for IC50: Homo sapiens, MTT assay, mean ± SD (n = 3). How it is done:
All the 30 compounds were evaluated for their anticancer potency against the prostate cancer cell line, DU-145, employing colorimetric tetrazolium dye (MTT) assay. […] Among the disubstituted series 20–25, substitution at position 3 and 4 (compound 24) produced the best activity but was lower than the standard. […] Similar phenomena can be seen among the dihydropyrazole series.
The in vitro anticancer activity of chalcones (17 to 31) and dihydropyrazoles (32 to 46) was evaluated by the Mosmann’s MTT assay as described previously.

The next experiment has as its system Aspergillus niger. The experiment can be described thus: Antifungal activity, serial tube dilution method. It is filed as cell-based. Here is the method:
as §1, §2

The next experiment deals with Candida tropicalis. The experiment can be described thus: Antifungal activity, serial tube dilution method. Type of experiment: cell-based. Conditions: read-out: MIC C tropicalis. Here is the method:
as §1, §2

The subject of another experiment is Staphylococcus aureus. Nature of the experiment: Antibacterial activity, serial tube dilution method. It is filed as cell-based. Conditions: for MIC: Staphylococcus aureus, Gram-positive, serial tube dilution, read-out: MIC S aureus. Here is the method:
as §1, §2

The subject of the next experiment is Pseudomonas aeruginosa. The experiment is described as above. As to conditions: for MIC: Pseudomonas aeruginosa, Gram-negative, serial tube dilution, read-out: MIC P aeruginosa. Type of experiment: cell-based. How it is done:
as §1, §2

A short description of experiment [3]: DPPH free radical scavenging assay. As to conditions: antioxidant activity; average of three independent experiments. How it is done: The antioxidant activity of all 30 compounds was assessed using 1,1-diphenyl-2-picrylhydrazine (DPPH) free radical scavenging assay and the results are the average of three independent experiments (Table 3). Gallic acid was employed as a positive control. […] In the disubstituted series (20–25), compound 25 with substitutions at position 3 and 5 on the phenyl ring gave the highest activity of 9 µg/mL.
The purpose of this study was to evaluate the antioxidant activity of chalcones and pyrazolines using the DPPH free radical assay. The percentage of antioxidant activity (AA%) of all the compounds was assessed by the DPPH free radical assay. The measurement of the DPPH radical scavenging activity was performed according to methodology described by Brand-Williams et al. The samples were reacted with the stable DPPH radical in an ethanol solution. A 0.1 mM solution of DPPH was prepared by dissolving DPPH in methanol. Gallic acid was taken as a reference standard and different concentrations of test samples (5–100 µg/mL) and standard (1.0, 2.5, and 5.0 µg/mL) were prepared using methanol. One milliliter of 0.1 mM DPPH solution was added to 3 mL of all concentrations of test samples and standard separately. These mixtures were kept in dark for about 30 min and the absorbance was measured at 517 nm. The capability to scavenge the DPPH radical was calculated using the formula:(1) DPPH scavanged (%)= Absorbance of control−Absorbance of sample/Absorbance of control∗100 when DPPH reacted with an antioxidant compound and was reduced, the change in color (from deep violet to light yellow) was read [Absorbance (Abs)] at 517 nm after […] of reaction using a UV-VIS spectrophotometer.
Background: The DPPH test is a chemical assay of radical scavenging.

Experiment [4] deals with Staphylococcus aureus and Pseudomonas aeruginosa. The experiment can be described thus: Antibacterial activity (strain not named). It is filed as cell-based. Here is the method:
as §1, §2

Experiment [5] relates to Aspergillus niger and Candida tropicalis. The experiment can be described thus: Antifungal activity (strain not named). It is filed as cell-based. Here is the method:
as §1, §2

Where [6] appears, read: text/figure value, strain not named.

Usually MIC stands for the least concentration at which growth counts as inhibited. Broadly, the IC50 is the midpoint of a concentration-inhibition curve. High values mean a need for much substance, low ones inhibition by little substance. Consider `COc1cccc(/C=C/C(=O)c2ccno2)c1` [Compound 18], for which the MIC in experiment [1] was 64 to 256 µg/mL (≈ 279 to 1120 µM); in the experiment with Aspergillus niger, 256 µg/mL (≈ 1120 µM); in the experiment with Candida tropicalis, 256 µg/mL (≈ 1120 µM); with Staphylococcus aureus, 128 µg/mL (≈ 558 µM); with Pseudomonas aeruginosa, 128 µg/mL (≈ 558 µM). Moreover, the IC50 is over 40 µg/mL in the experiment on Human Normal Cells (L02) and 20 ± 1 µg/mL (≈ 87.2 µM) in [2]. In addition, in [3], the “DPPH assay IC50” value worked out at 38 ± 2 µg/mL.

Consider `COc1cc(/C=C/C(=O)c2ccno2)cc(OC)c1` [Compound 25], for which the MIC is 64 to 256 µg/mL (≈ 247 to 987 µM) in [1]; 256 µg/mL (≈ 987 µM) against Aspergillus niger; 512 µg/mL (≈ 1970 µM) in the experiment on Candida tropicalis; 256 µg/mL (≈ 987 µM) in the experiment on Staphylococcus aureus; 256 µg/mL (≈ 987 µM) in the experiment on Pseudomonas aeruginosa. In addition, the IC50 with Human Normal Cells (L02) was over 40 µg/mL; in [2] it was 12 ± 1 µg/mL (≈ 46.3 µM). Further, the “DPPH assay IC50” value in [3] came to 9 ± 1 µg/mL.

For `COc1ccc(/C=C/C(=O)c2ccno2)c(OC)c1OC` [Compound 26], the minimal inhibitory concentration (MIC) is 64 to 256 µg/mL (≈ 221 to 885 µM) in experiment [1]; 128 µg/mL (≈ 442 µM) in the experiment with Aspergillus niger; 128 µg/mL (≈ 442 µM) in the experiment on Candida tropicalis; 64 µg/mL (≈ 221 µM) in the experiment with Staphylococcus aureus; 64 µg/mL (≈ 221 µM) with Pseudomonas aeruginosa. The figures for the IC50 (with Human Normal Cells (L02); in experiment [2]) were over 40 µg/mL and 10 ± 2 µg/mL (≈ 34.6 µM), respectively. Moreover, in [3], the “DPPH assay IC50” value is 6 ± 1 µg/mL.

Consider `COc1cc(OC)c(/C=C/C(=O)c2ccno2)c(OC)c1` [Compound 28], for which the MIC worked out at 1 µg/mL (≈ 3.46 µM) in experiment [4] (setting [6]); 2 µg/mL (≈ 6.91 µM) against Aspergillus niger; 2 µg/mL (≈ 6.91 µM) in the experiment on Candida tropicalis; 1 µg/mL (≈ 3.46 µM) with Staphylococcus aureus; 1 µg/mL (≈ 3.46 µM) in the experiment with Pseudomonas aeruginosa; 2 µg/mL (≈ 6.91 µM) in experiment [5] (setting [6]). Further, the “antibacterial MIC” value in experiment [4] (setting [6]) worked out at 1 µg/mL. The IC50 was over 40 µg/mL in the experiment on Human Normal Cells (L02) and 30 ± 2 µg/mL (≈ 104 µM) in [2]. The “DPPH assay IC50” value in [3] is recorded as 5 ± 1 µg/mL.

Regarding `COc1cc(/C=C/C(=O)c2ccno2)cc(OC)c1OC` [Compound 29], the MIC in [1] is 64 to 256 µg/mL (≈ 221 to 885 µM); against Aspergillus niger it was 128 µg/mL (≈ 442 µM); in the experiment on Candida tropicalis it was 256 µg/mL (≈ 885 µM); with Staphylococcus aureus it was 64 µg/mL (≈ 221 µM); in the experiment with Pseudomonas aeruginosa, 128 µg/mL (≈ 442 µM). Besides, the IC50 is over 40 µg/mL in the experiment on Human Normal Cells (L02) and 8 ± 2 µg/mL (≈ 27.7 µM) in experiment [2]. For the same compound, the “DPPH assay IC50” value in experiment [3] is recorded as 8 ± 2 µg/mL.

Regarding `COc1ccccc1C1CC(c2ccno2)=NN1C(N)=O` (stereo not shown) [Compound 34], the IC50 is over 40 µg/mL in the experiment with Human Normal Cells (L02) and 32 ± 2 µg/mL (≈ 112 µM) in experiment [2]. Further, the minimal inhibitory concentration (MIC) with Aspergillus niger is 8 µg/mL (≈ 27.9 µM); in the experiment on Candida tropicalis it was 8 µg/mL (≈ 27.9 µM); in the experiment on Staphylococcus aureus it was 16 µg/mL (≈ 55.9 µM); in the experiment with Pseudomonas aeruginosa it was 16 µg/mL (≈ 55.9 µM); in experiment [5] (setting [6]) it was 8 µg/mL (≈ 27.9 µM). Besides, the “DPPH assay IC50” value in experiment [3] was determined as 38 ± 2 µg/mL.

With `COc1cccc(OC)c1C1CC(c2ccno2)=NN1C(N)=O` (stereo not shown) [Compound 38], the IC50 was over 40 µg/mL in the experiment with Human Normal Cells (L02) and 20 ± 2 µg/mL (≈ 63.2 µM) in [2]. In addition, the MIC turned out to be 2 µg/mL (≈ 6.32 µM) in the experiment with Aspergillus niger; 2 µg/mL (≈ 6.32 µM) in the experiment with Candida tropicalis; 32 µg/mL (≈ 101 µM) with Staphylococcus aureus; 16 µg/mL (≈ 50.6 µM) with Pseudomonas aeruginosa; 2 µg/mL (≈ 6.32 µM) in [5] (setting [6]). Moreover, in [3], the “DPPH assay IC50” value is on record as 28 ± 1 µg/mL.

On to `COc1ccc(C2CC(c3ccno3)=NN2C(N)=O)c(OC)c1OC` (stereo not shown) [Compound 41], for which the MIC in experiment [4] (setting [6]) is 64 µg/mL (≈ 185 µM); with Aspergillus niger it was 64 µg/mL (≈ 185 µM); in the experiment with Candida tropicalis, 64 µg/mL (≈ 185 µM); in the experiment with Staphylococcus aureus it was 64 µg/mL (≈ 185 µM); in the experiment on Pseudomonas aeruginosa, 128 µg/mL (≈ 370 µM). Further, the IC50 in the experiment on Human Normal Cells (L02) was over 40 µg/mL; in experiment [2], 9 ± 1 µg/mL (≈ 26 µM). Further, the “DPPH assay IC50” value in experiment [3] worked out at 8 ± 1 µg/mL.

In the case of `COc1cc(OC)c(C2CC(c3ccno3)=NN2C(N)=O)c(OC)c1` (stereo not shown) [Compound 43], the MIC turned out to be 4 µg/mL (≈ 11.5 µM) in experiment [4] (setting [6]); 2 µg/mL (≈ 5.77 µM) in the experiment with Aspergillus niger; 2 µg/mL (≈ 5.77 µM) in the experiment with Candida tropicalis; 4 µg/mL (≈ 11.5 µM) in the experiment with Staphylococcus aureus; 4 µg/mL (≈ 11.5 µM) in the experiment on Pseudomonas aeruginosa; 2 µg/mL (≈ 5.77 µM) in experiment [5] (setting [6]). Also, the IC50 in the experiment with Human Normal Cells (L02) was over 40 µg/mL; in experiment [2] it was 21 ± 2 µg/mL (≈ 60.6 µM). For the same compound, the “fold improvement in the antibacterial activity compared to compound 38” value in the experiment with Staphylococcus aureus (first of two values, S aureus inferred from Table 2) amounted to 8 fold; in the experiment with Pseudomonas aeruginosa (second of two values, P aeruginosa inferred from Table 2) it was 4 fold. Also, the “DPPH assay IC50” value in [3] is recorded as 6 ± 1 µg/mL.

With `COc1ccc(C2CC(c3ccno3)=NN2C(N)=O)c(F)c1OC` (stereo not shown) [Compound 45], the “fold improvement of antibacterial activity vs. 41” value in [4] (45 (MIC 8) vs. 41 (MIC 64)) is given as 8 fold. Besides, the MIC in experiment [4] (setting [6]) is 8 µg/mL (≈ 23.9 µM); against Aspergillus niger, 0.5 µg/mL (≈ 1.5 µM); in the experiment with Candida tropicalis it was 1 µg/mL (≈ 2.99 µM); in the experiment on Staphylococcus aureus, 8 µg/mL (≈ 23.9 µM); with Pseudomonas aeruginosa it was 8 µg/mL (≈ 23.9 µM). Further, the IC50 was over 40 µg/mL with Human Normal Cells (L02) and 2 ± 1 µg/mL (≈ 5.98 µM) in experiment [2]. In addition, in experiment [2] (given as MIC in text/Figure 3), the “Anticancer potency MIC” value was 2 µg/mL. Besides, in [3], the “DPPH assay IC50” value is reported as 55 ± 2 µg/mL.

With `COc1cc(Cl)c(C2CC(c3ccno3)=NN2C(N)=O)c(OC)c1` (stereo not shown) [Compound 46], the MIC in experiment [4] (setting [6]) came to 8 µg/mL (≈ 22.8 µM); against Aspergillus niger, 0.5 µg/mL (≈ 1.43 µM); in the experiment with Candida tropicalis, 0.5 µg/mL (≈ 1.43 µM); with Staphylococcus aureus it was 8 µg/mL (≈ 22.8 µM); with Pseudomonas aeruginosa, 8 µg/mL (≈ 22.8 µM). Moreover, the IC50 in the experiment on Human Normal Cells (L02) was over 40 µg/mL; in experiment [2] it was 12 ± 2 µg/mL (≈ 34.2 µM); in experiment [5], 2 ± 1 µg/mL (≈ 5.7 µM). In addition, the “antifungal MIC” value in experiment [5] (setting [6]) was 0.5 µg/mL. Further, the “DPPH assay IC50” value in experiment [3] came to 62 ± 1 µg/mL.
